{"source": "patent US20080292584A1", "about": "(priority 2005, published 2008)", "key": {"[1]": {"target": "T1, CYP2C8 (Homo sapiens, UniProt P10632)", "T1 sequence (P10632 1-490)": "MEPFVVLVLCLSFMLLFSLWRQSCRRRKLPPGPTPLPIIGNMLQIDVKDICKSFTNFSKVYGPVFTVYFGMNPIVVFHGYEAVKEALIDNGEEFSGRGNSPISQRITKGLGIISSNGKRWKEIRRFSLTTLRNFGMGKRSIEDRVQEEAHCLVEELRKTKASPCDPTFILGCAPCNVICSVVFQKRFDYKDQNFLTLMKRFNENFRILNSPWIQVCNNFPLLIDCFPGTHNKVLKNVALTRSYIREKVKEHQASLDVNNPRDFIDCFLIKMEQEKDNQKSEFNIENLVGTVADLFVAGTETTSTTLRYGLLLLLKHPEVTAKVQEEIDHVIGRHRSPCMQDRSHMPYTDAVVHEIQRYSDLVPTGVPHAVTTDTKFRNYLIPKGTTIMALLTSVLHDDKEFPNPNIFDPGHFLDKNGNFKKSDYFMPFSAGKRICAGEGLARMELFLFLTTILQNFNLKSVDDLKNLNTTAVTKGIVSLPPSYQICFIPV", "experiment": "Chemical inhibition of metaxalone turnover in human liver microsomes, CYP2C8 inhibitor quercetin", "conditions": "both, human, pooled human liver microsomes"}, "[2]": {"target": "CYP2C9 (Homo sapiens, UniProt P11712)", "sequence (P11712 whole entry)": "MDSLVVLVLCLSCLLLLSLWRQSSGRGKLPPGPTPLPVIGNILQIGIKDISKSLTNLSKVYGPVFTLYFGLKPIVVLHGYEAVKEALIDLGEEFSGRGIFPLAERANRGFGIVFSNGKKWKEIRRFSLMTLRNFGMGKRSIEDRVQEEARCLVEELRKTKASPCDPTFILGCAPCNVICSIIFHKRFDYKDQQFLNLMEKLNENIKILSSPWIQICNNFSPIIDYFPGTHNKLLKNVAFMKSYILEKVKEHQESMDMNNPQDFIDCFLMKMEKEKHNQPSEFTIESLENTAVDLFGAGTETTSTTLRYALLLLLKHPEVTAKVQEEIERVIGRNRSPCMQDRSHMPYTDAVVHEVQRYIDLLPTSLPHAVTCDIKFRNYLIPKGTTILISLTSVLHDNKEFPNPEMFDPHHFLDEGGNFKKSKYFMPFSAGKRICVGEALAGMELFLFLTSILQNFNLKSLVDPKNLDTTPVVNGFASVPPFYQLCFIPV", "experiment": "in vitro", "conditions": "both, microsomes, pH 7.4, Inhibition of metaxalone disappearance (% inhibition of turnover)"}, "[3]": {"tested_on": "CYP2B6", "experiment": "Chemical inhibition of metaxalone turnover in human liver microsomes, CYP2B6 inhibitor thio-TEPA", "conditions": "both, human, microsomes, pH 7.4, Inhibition of metaxalone disappearance (% inhibition of turnover)"}, "[4]": {"tested_on": "CYP2A6", "experiment": "Chemical inhibition of metaxalone turnover in human liver microsomes, CYP2A6 inhibitor pilocarpine", "conditions": "both, human, microsomes, pH 7.4, Inhibition of metaxalone disappearance (% inhibition of turnover)"}, "[5]": {"tested_on": "CYP2B6", "experiment": "Induction/inhibition of CYP2B6 activity in cryopreserved human hepatocytes (S-mephenytoin)", "conditions": "1 mM Phenobarbital; each hepatocyte donor", "excerpt": "(§1) Hepatocytes from three human donors were obtained from a cryopreserved hepatocyte bank (In Vitro Technologies, Inc., USA). After thawing, viable hepatocytes were transferred to collagen-coated 48-well plates for attachment in plating medium (DMEM stock (Dulbecco's modified Eagle's medium, supplemented with bovine serum albumin, fructose, N-(2-hydroxyethyl)piperazine-N′-(2-ethanesulfonate) (HEPES), and sodium bicarbonate), supplemented with antibiotics, bovine serum, hydrocortisone, insulin and minimum essential medium (MEM) nonessential amino acids). After attachment to the collagen matrix, plating medium was replaced with sandwich medium (plating medium supplemented with VITROGEN) and incubated until use.\n(§2) The supplemented KHB was replaced with 150 μL supplemented KHB containing the appropriate isoform-selective substrate and incubated for 4 hrs prior to termination by adding 150 μL ice-cold methanol, except for the CYP2C8 incubations which were terminated by adding 150 μL acetonitrile.\n(§3) All substrates were dissolved in acetonitrile.\n(§4) Replicate trials and controls were performed. […] Additionally, reference control samples were included to evaluate inducibility of CYP2B6, CYP2C9, and CYP2C19 in the test system.\n(§5) Mean specific activity values with associated p-values≦0.05 were deemed to be statistically significant."}, "[6]": {"target": "T2, CYP1A2 (Homo sapiens, UniProt P05177)", "T2 sequence (P05177 1-516)": "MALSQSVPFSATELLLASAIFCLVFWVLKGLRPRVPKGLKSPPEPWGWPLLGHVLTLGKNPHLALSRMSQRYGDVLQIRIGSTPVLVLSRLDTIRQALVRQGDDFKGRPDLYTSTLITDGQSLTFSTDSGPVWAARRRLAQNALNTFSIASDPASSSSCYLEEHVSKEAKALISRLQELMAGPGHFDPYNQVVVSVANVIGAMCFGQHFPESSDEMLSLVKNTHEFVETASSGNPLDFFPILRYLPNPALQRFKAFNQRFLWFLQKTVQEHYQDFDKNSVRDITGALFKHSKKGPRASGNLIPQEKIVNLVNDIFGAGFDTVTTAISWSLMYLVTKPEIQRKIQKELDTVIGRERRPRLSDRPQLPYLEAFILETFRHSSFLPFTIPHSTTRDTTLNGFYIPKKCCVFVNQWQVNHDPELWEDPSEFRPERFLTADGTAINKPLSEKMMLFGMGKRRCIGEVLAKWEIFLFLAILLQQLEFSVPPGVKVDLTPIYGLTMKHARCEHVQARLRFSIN", "experiment": "Chemical inhibition of metaxalone turnover in human liver microsomes, CYP1A2 selective inhibitor furafylline", "conditions": "both, pooled human liver microsomes"}, "[7]": {"target": "CYP2E1 (Homo sapiens, UniProt P05181)", "sequence (P05181 whole entry)": "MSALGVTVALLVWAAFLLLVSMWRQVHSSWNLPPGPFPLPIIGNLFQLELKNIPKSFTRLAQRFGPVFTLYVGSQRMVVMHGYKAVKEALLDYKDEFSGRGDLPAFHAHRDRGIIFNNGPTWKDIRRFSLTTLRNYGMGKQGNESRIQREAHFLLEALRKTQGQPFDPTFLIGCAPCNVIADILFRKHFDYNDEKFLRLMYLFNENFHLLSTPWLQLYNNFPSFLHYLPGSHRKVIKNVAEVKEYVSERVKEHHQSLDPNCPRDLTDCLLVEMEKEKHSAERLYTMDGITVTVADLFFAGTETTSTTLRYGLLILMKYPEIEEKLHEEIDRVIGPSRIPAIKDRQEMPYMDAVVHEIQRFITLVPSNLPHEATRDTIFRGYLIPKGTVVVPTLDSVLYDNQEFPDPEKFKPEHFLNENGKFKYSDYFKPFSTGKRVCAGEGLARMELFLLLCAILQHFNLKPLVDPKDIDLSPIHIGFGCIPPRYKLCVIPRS", "experiment": "Chemical inhibition of metaxalone turnover in human liver microsomes, CYP2E1 inhibitor clomethiazole", "conditions": "both, human, microsomes, pH 7.4, Inhibition of metaxalone disappearance (% inhibition of turnover)"}, "[8]": {"target": "CYP3A4 (Homo sapiens, UniProt P08684)", "sequence (P08684 whole entry)": "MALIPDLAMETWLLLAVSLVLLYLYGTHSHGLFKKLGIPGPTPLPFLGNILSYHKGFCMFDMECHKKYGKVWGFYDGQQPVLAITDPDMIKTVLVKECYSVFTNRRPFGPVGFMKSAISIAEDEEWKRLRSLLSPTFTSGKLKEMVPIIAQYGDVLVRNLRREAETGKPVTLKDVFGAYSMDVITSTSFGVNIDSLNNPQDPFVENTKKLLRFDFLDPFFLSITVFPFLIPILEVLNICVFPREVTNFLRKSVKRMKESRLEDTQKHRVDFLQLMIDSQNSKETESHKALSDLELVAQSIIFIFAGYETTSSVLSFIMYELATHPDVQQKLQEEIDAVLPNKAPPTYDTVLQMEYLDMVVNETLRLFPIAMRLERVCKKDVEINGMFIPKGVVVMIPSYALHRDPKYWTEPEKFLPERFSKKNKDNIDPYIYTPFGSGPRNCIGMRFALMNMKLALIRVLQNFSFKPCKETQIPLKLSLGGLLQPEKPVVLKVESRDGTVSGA", "experiment": "in vitro", "conditions": "both, pooled human liver microsomes"}, "[9]": {"tested_on": "CYP1A2", "experiment": "Induction/inhibition of CYP1A2 activity in cryopreserved human hepatocytes after 48 h exposure (phenacetin)", "conditions": "human, 48 h, 50 μM", "excerpt": "as §1, §2, §3, §4, §5"}, "[10]": {"conditions": "pH 7.4, probe metaxalone 0.75 μM (disappearance)"}, "[11]": {"conditions": "pH 7.4, probe metaxalone 7.5 μM (disappearance)"}}, "data": [{"molecule": "O=c1c(O)c(-c2ccc(O)c(O)c2)oc2cc(O)cc(O)c12", "note": "[quercetin]", "values": [{"measurement": "inhibition at 60 min", "setting": "[1]; [10]", "value": "77.2 ± 13.6", "unit": "%"}, {"measurement": "inhibition at 60 min", "setting": "[1]; [11]", "value": "84.7 ± 18.3", "unit": "%"}]}, {"molecule": "Nc1ccc(S(=O)(=O)Nc2ccnn2-c2ccccc2)cc1", "note": "[sulfaphenazole]", "values": [{"measurement": "inhibition at 60 min", "setting": "[2]; 0.75 μM metaxalone", "value": "81.4 ± 0.3", "unit": "%"}, {"measurement": "inhibition at 60 min", "setting": "[2]; 7.5 μM metaxalone", "value": "52.8 ± 2.9", "unit": "%"}]}, {"molecule": "S=P(N1CC1)(N1CC1)N1CC1", "note": "[thio-TEPA]", "values": [{"measurement": "inhibition at 60 min", "setting": "[3]; 0.75 μM metaxalone", "value": "58.3 ± 2.4", "unit": "%"}, {"measurement": "inhibition at 60 min", "setting": "[3]; 7.5 μM metaxalone", "value": "43.3 ± 13.8", "unit": "%"}]}, {"molecule": "CC[C@@H]1C(=O)OC[C@@H]1Cc1cncn1C", "note": "[pilocarpine]", "values": [{"measurement": "inhibition at 60 min", "setting": "[4]; 0.75 μM metaxalone", "value": "46.2 ± 5.7", "unit": "%"}, {"measurement": "inhibition at 60 min", "setting": "[4]; 7.5 μM metaxalone", "value": "50.8 ± 6.9", "unit": "%"}]}, {"molecule": "CCC1(c2ccccc2)C(=O)NC(=O)NC1=O", "note": "[Phenobarbital]", "values": [{"measurement": "induction (reference control)", "setting": "[5]", "value": "statistically significant amount of induction"}]}, {"molecule": "Cc1nc2c([nH]1)c(=O)n(C)c(=O)n2Cc1ccco1", "note": "[furafylline]", "values": [{"measurement": "inhibition at 60 min", "setting": "[6]; [10]", "value": "111 ± 29", "unit": "%"}, {"measurement": "inhibition at 60 min", "setting": "[6]; [11]", "value": "80.6 ± 2.4", "unit": "%"}]}, {"molecule": "Cc1ncsc1CCCl", "note": "[clomethiazole]", "values": [{"measurement": "inhibition at 60 min", "setting": "[7]; 0.75 μM metaxalone", "value": "113 ± 21", "unit": "%"}, {"measurement": "inhibition at 60 min", "setting": "[7]; 7.5 μM metaxalone", "value": "98.6 ± 4.9", "unit": "%"}]}, {"molecule": "CC(=O)N1CCN(c2ccc(OCC3COC(Cn4ccnc4)(c4ccc(Cl)cc4Cl)O3)cc2)CC1", "note": "(stereo not shown) [ketoconazole]", "values": [{"measurement": "inhibition at 60 min", "setting": "[8]; [10]", "value": "126 ± 5", "unit": "%"}, {"measurement": "inhibition at 60 min", "setting": "[8]; [11]", "value": "130 ± 18", "unit": "%"}]}, {"molecule": "COc1ccc2[nH]c([S+]([O-])Cc3ncc(C)c(OC)c3C)nc2c1", "note": "(stereo not shown) [omeprazole]", "values": [{"measurement": "induction", "setting": "[9]", "value": "≥ 200", "unit": "%"}]}]}
